Laboratory results as given in patent publication US20240368118A1, “CEREBLON BINDING COMPOUNDS, COMPOSITIONS THEREOF, AND METHODS OF TREATMENT THEREWITH” (CELGENE CORPORATION, priority 2021, published 2024).

Target: T1, AR (Homo sapiens, UniProt P10275)
T1 construct: endogenous in cells; host or cells: VCaP cells
T1 sequence (P10275 1-920): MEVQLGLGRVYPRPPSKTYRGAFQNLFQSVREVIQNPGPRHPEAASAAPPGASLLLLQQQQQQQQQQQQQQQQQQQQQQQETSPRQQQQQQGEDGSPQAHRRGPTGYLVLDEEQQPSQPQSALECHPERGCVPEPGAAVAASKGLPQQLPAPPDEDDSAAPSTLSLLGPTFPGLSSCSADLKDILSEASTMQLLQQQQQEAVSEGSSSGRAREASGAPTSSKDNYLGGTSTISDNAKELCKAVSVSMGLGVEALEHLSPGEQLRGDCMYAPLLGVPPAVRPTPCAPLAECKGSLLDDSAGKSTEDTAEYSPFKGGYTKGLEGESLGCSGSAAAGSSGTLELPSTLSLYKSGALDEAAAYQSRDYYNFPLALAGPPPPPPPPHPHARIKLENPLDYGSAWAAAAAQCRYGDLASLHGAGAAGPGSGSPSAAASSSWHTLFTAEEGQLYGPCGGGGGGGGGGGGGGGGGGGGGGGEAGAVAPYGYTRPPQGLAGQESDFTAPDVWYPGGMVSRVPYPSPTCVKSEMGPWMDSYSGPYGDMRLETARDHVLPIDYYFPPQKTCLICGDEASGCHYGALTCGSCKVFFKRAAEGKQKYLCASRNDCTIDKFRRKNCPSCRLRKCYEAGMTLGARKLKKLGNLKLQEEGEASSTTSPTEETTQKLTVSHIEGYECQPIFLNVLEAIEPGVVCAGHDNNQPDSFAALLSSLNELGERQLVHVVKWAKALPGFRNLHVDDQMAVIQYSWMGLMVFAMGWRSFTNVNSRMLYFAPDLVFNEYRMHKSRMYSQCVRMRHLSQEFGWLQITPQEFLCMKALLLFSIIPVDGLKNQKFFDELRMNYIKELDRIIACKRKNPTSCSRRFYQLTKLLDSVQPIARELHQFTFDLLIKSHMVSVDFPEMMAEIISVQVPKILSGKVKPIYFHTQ
Assay: VCAP AR Degradation Assay
Format: cell-based
Conditions: VCaP cells, 24 h; for DC50: AR ELISA, concentration when AR level = 50% of DMSO control; for Ymin: lowest AR level normalized to DMSO control, given as numbers
Method: VCAP AR Degradation Assay. Test compounds were pre-dispensed into a Corning CellBind 96-well clear bottom plate (Cat #3300) using an acoustic dispenser to make a 10-point concentration series at 1:3 dilution for each compound. The final top concentration of each compound was 5 μM. DMSO at a final concentration of 0.1% was used as a control. VCaP cells cultured in DMEM with 8% fetal bovine serum (FBS) were seeded at 50K cells per well in a 200 μL volume into the compound plate and incubated at 37° C. in a C02 incubator for 24 h. The medium was carefully removed from the cells and the plate was placed on ice. One hundred μL of ice-cold 1× cell lysis buffer from Cell Signaling Technologies (Cat #9803) was added to each well of the cells and the plate was incubated at 4° C. on a shaker for 1 h. Fifteen μL of cell lysate was used for AR ELISA detection using a PathScan Total Sandwich AR ELISA kit (Cell Signaling Technology, Cat #12580). AR levels in compound-treated wells were normalized to that of DMSO control and expressed as percent of control (PoC) (y). A Four Parameter Logistic Model (Sigmoidal Dose-Response Model) was used to determine the compound's DC50, and EC50, using the following equation: […]
The lowest measured AR level normalized to DMSO control in response to compound treatment, termed Y value, was used to characterize the compound-mediated AR degradation efficiency.

DC50	Ymin	SMILES
≤ 5 nM	15 % of DMSO control	C[C@@H]1C[C@@H](CCO[C@H]2CC[C@H](N3C(=S)N(c4cnc(C#N)c(C(F)(F)F)c4)C(=O)C3(C)C)CC2)C[C@H](C)N1CC(=O)Nc1ccc(C2CCC(=O)NC2=O)cc1 (stereo partly drawn) [Cmpd 29, 2-((2R,4s,6S)-4-(2-(((trans)-4-(3-(6-Cyano-5-(trifluoromethyl)pyridin-3-yl)-5,5-dimethyl-4-oxo-2-thioxoimidazolidin-1-yl)cyclohexyl)oxy)ethyl)-2,6-dimethylpiperidin-1-yl)-N-(4-(2,6-dioxopiperidin-3-yl)phenyl)acetamide]
≤ 5 nM	20 % of DMSO control	CC1(C)C(=O)N(c2cnc(C#N)c(C(F)(F)F)c2)C(=S)N1[C@H]1CC[C@H](OCCCN2CCN(CC(=O)Nc3cccc(C4CCC(=O)NC4=O)c3)[C@@H](C(F)(F)F)C2)CC1 (stereo partly drawn) [Cmpd 32, 2-((R)-4-(3-(((trans)-4-(3-(6-Cyano-5-(trifluoromethyl)pyridin-3-yl)-5,5-dimethyl-4-oxo-2-thioxoimidazolidin-1-yl)cyclohexyl)oxy)propyl)-2-(trifluoromethyl)piperazin-1-yl)-N-(3-(2,6-dioxopiperidin-3-yl)phenyl)acetamide]
5 to 15 nM	17 % of DMSO control	CC1(C)C(=O)N(c2cnc(C#N)c(C(F)(F)F)c2)C(=S)N1[C@H]1CC[C@H](CCCN2CCN(CC(=O)Nc3ccc(C4CCC(=O)NC4=O)cc3)[C@@H](C(F)(F)F)C2)CC1 (stereo partly drawn) [Cmpd 33, 2-((R)-4-(3-((trans)-4-(3-(6-Cyano-5-(trifluoromethyl)pyridin-3-yl)-5,5-dimethyl-4-oxo-2-thioxoimidazolidin-1-yl)cyclohexyl)propyl)-2-(trifluoromethyl)piperazin-1-yl)-N-(4-(2,6-dioxopiperidin-3-yl)phenyl)acetamide]
≤ 5 nM	12 % of DMSO control	CC1(C)C(=O)N(c2cnc(C#N)c(C(F)(F)F)c2)C(=S)N1[C@H]1CC[C@H](OCCCN2CCN(CC(=O)Nc3ccc(C4CCC(=O)NC4=O)cc3)[C@@H](C(F)(F)F)C2)CC1 (stereo partly drawn) [Cmpd 34, 2-((R)-4-(3-(((trans)-4-(3-(6-Cyano-5-(trifluoromethyl)pyridin-3-yl)-5,5-dimethyl-4-oxo-2-thioxoimidazolidin-1-yl)cyclohexyl)oxy)propyl)-2-(trifluoromethyl)piperazin-1-yl)-N-(4-(2,6-dioxopiperidin-3-yl)phenyl)acetamide]
5 to 15 nM	14 % of DMSO control	C[C@@H]1C[C@H](OCCC[C@H]2CC[C@H](N3C(=S)N(c4cnc(C#N)c(C(F)(F)F)c4)C(=O)C3(C)C)CC2)C[C@H](C)N1CC(=O)Nc1ccc(C2CCC(=O)NC2=O)cc1 (stereo partly drawn) [Cmpd 38, 2-((2R,4r,6S)-4-(3-((trans)-4-(3-(6-Cyano-5-(trifluoromethyl)pyridin-3-yl)-5,5-dimethyl-4-oxo-2-thioxoimidazolidin-1-yl)cyclohexyl)propoxy)-2,6-dimethylpiperidin-1-yl)-N-(4-(2,6-dioxopiperidin-3-yl)phenyl)acetamide]
≤ 5 nM	14 % of DMSO control	C[C@@H]1C[C@H](OCC[C@H]2CC[C@H](N3C(=S)N(c4cnc(C#N)c(C(F)(F)F)c4)C(=O)C3(C)C)CC2)C[C@H](C)N1CC(=O)Nc1ccc(C2CCC(=O)NC2=O)cc1 (stereo partly drawn) [Cmpd 39, 2-((2R,4r,6S)-4-(2-((trans)-4-(3-(6-Cyano-5-(trifluoromethyl)pyridin-3-yl)-5,5-dimethyl-4-oxo-2-thioxoimidazolidin-1-yl)cyclohexyl)ethoxy)-2,6-dimethylpiperidin-1-yl)-N-(4-(2,6-dioxopiperidin-3-yl)phenyl)acetamide]
≤ 5 nM	17 % of DMSO control	C[C@@H]1C[C@H](OCCO[C@H]2CC[C@H](N3C(=S)N(c4cnc(C#N)c(C(F)(F)F)c4)C(=O)C3(C)C)CC2)C[C@H](C)N1CC(=O)Nc1ccc(C2CCC(=O)NC2=O)cc1 (stereo partly drawn) [Cmpd 41, 2-((2R,4r,6S)-4-(2-(((trans)-4-(3-(6-Cyano-5-(trifluoromethyl)pyridin-3-yl)-5,5-dimethyl-4-oxo-2-thioxoimidazolidin-1-yl)cyclohexyl)oxy)ethoxy)-2,6-dimethylpiperidin-1-yl)-N-(4-(2,6-dioxopiperidin-3-yl)phenyl)acetamide]

Continued, compound first:

SMILES	DC50	Ymin
C[C@@H]1CN(CCCC[C@H]2CC[C@H](N3C(=S)N(c4ccc(C#N)c(C(F)(F)F)c4)C(=O)C3(C)C)CC2)C[C@H](C)N1CC(=O)Nc1ccc(C2CCC(=O)NC2=O)cc1 (stereo partly drawn) [Cmpd 30, 2-((2R,6S)-4-(4-((trans)-4-(3-(4-Cyano-3-(trifluoromethyl)phenyl)-5,5-dimethyl-4-oxo-2-thioxoimidazolidin-1-yl)cyclohexyl)butyl)-2,6-dimethylpiperazin-1-yl)-N-(4-(2,6-dioxopiperidin-3-yl)phenyl)acetamide]	≤ 5 nM	20 % of DMSO control
CC1(C)C(=O)N(c2ccc(C#N)c(C(F)(F)F)c2)C(=S)N1[C@H]1CC[C@H](OCCCN2CCN(CC(=O)Nc3cccc(C4CCC(=O)NC4=O)c3)[C@@H](C(F)(F)F)C2)CC1 (stereo partly drawn) [Cmpd 31, 2-((R)-4-(3-(((trans)-4-(3-(4-Cyano-3-(trifluoromethyl)phenyl)-5,5-dimethyl-4-oxo-2-thioxoimidazolidin-1-yl)cyclohexyl)oxy)propyl)-2-(trifluoromethyl)piperazin-1-yl)-N-(3-(2,6-dioxopiperidin-3-yl)phenyl)acetamide]	≤ 5 nM	21 % of DMSO control
CC1(C)C(=O)N(c2ccc(C#N)c(C(F)(F)F)c2)C(=S)N1[C@H]1CC[C@H](OCCCN2CCN(CC(=O)Nc3ccc(C4CCC(=O)NC4=O)cc3)[C@@H](C(F)(F)F)C2)CC1 (stereo partly drawn) [Cmpd 35, 2-((R)-4-(3-(((trans)-4-(3-(4-Cyano-3-(trifluoromethyl)phenyl)-5,5-dimethyl-4-oxo-2-thioxoimidazolidin-1-yl)cyclohexyl)oxy)propyl)-2-(trifluoromethyl)piperazin-1-yl)-N-(4-(2,6-dioxopiperidin-3-yl)phenyl)acetamide]	≤ 5 nM	21 % of DMSO control
CC1(C)C(=O)N(c2ccc(C#N)c(C(F)(F)F)c2)C(=S)N1[C@H]1CC[C@H](CCCN2CCN(CC(=O)Nc3ccc(C4CCC(=O)NC4=O)cc3)[C@@H](C(F)(F)F)C2)CC1 (stereo partly drawn) [Cmpd 36, 2-((R)-4-(3-((trans)-4-(3-(4-Cyano-3-(trifluoromethyl)phenyl)-5,5-dimethyl-4-oxo-2-thioxoimidazolidin-1-yl)cyclohexyl)propyl)-2-(trifluoromethyl)piperazin-1-yl)-N-(4-(2,6-dioxopiperidin-3-yl)phenyl)acetamide]	15 to 100 nM	24 % of DMSO control
C[C@@H]1C[C@H](OCCC[C@H]2CC[C@H](N3C(=S)N(c4ccc(C#N)c(C(F)(F)F)c4)C(=O)C3(C)C)CC2)C[C@H](C)N1CC(=O)Nc1ccc(C2CCC(=O)NC2=O)cc1 (stereo partly drawn) [Cmpd 37, 2-((2R,4r,6S)-4-(3-((trans)-4-(3-(4-Cyano-3-(trifluoromethyl)phenyl)-5,5-dimethyl-4-oxo-2-thioxoimidazolidin-1-yl)cyclohexyl)propoxy)-2,6-dimethylpiperidin-1-yl)-N-(4-(2,6-dioxopiperidin-3-yl)phenyl)acetamide]	15 to 100 nM	19 % of DMSO control
C[C@@H]1C[C@H](OCC[C@H]2CC[C@H](N3C(=S)N(c4ccc(C#N)c(C(F)(F)F)c4)C(=O)C3(C)C)CC2)C[C@H](C)N1CC(=O)Nc1ccc(C2CCC(=O)NC2=O)cc1 (stereo partly drawn) [Cmpd 40, 2-((2R,4r,6S)-4-(2-((trans)-4-(3-(4-Cyano-3-(trifluoromethyl)phenyl)-5,5-dimethyl-4-oxo-2-thioxoimidazolidin-1-yl)cyclohexyl)ethoxy)-2,6-dimethylpiperidin-1-yl)-N-(4-(2,6-dioxopiperidin-3-yl)phenyl)acetamide]	5 to 15 nM	21 % of DMSO control
